Assays:
Type in all cases: in vivo, C57BL/6 mice
[1] = test system: LP-BM5; assay: Serum IgG by ELISA (hypergammaglobulinemia) in LP-BM5 infected mice; details: about 4 months from infection
Method: Serum IgG levels were determined using an ELISA technique. Briefly, polyvinylchloride microtiter plates (Immulon I; Dynatech Laboratories, Chantilly, VA) were coated with goat anti mouse IgG (Sigma) diluted in 0.135 M sodium chloride for ≥ 24 hr. After four washes with 0.1% tween PBS (TPBS), the plates were blocked with 5% bovin serum albumin (BSA) in PBS for 1 h at 37°C and washed again with TPBS. Serial dilutions of mouse serum were added and after incubation for 1 h at 37°C, the plates were washed four times with TPBS, and 100 µl of horseradish (HRP)-conjugated goat anti-mouse IgG (Bio-Rad, Richmond, CA) was added. After 1 h incubation at 37°C, serum levels were determined using a color development solution containing 2.2 mM O-Phenylenediamine. Absorbance was measured at 492 nm on Model 2550 EIA READER (BIO-RAD). Absolute serum IgG concentrations were obtained using known concentrations of standard mouse IgG.
First, the efficacy of 2-fluoro-ara-AMP (F-araAMP, Fludara) in inhibiting murine AIDS (MAIDS), a disease characterized by a lymphoproliferative disorder (lymphadenopathy and splenomegaly), associated with severe immunodeficiency and hypergammaglobulinemia, was evaluated. The disease develops in some strains of mice (C57BL/6) that are infected with a murine leukemia virus mixture termed LP-BM5. In the first preliminary experiments (after about 4 months from infection) LP-BMS infected animals were treated with three different concentrations of F-ara-AMP: 0.065 mg/mouse, 0.325 mg/mouse, 0.650 mg/mouse. The animals of each group were treated intraperitoneally for 3 days a week and for 3 weeks. At the end of the treatment animals were killed and splenomegaly, lymphadenopathy and hypergammaglobulinemia were evaluated.

[2] = test system: LP-BM5; assay: Histopathological examination of liver and lymph node sections; details: in drinking water at 15 mg/mouse
Source text: Samples of lymph nodes and liver from three animals in each treatment group were fixed in 4% paraformaldehyde in phosphate-buffered saline, sectioned, and stained with May Grunwald-Giemsa.

[3] = test system: BM5d proviral DNA; assay: PCR analysis of BM5d proviral DNA in spleen, lymph node and bone marrow; details: for % of inhibition of BM5d proviral DNA, Bonemarrow / % of inhibition of BM5d proviral DNA, Lymphnode / % of inhibition of BM5d proviral DNA, Spleen: after 7 weeks of infection
Source text: The following oligonucleotide primers were used for the amplification of a 141-bp gag gene of defective virus genome (BM5d); 5' primer, 5'-AACCTTCCTCCTCTGCCA-3' (sense) corresponding to nucleotides 1456-1473 and 3' primer, 5'-ACCACCTCTCGGGCTTTC-3' (antisense) corresponding to nucleotides 1579-1596 of the BM5d genome (Chat topadhyay SK, Sengupta D.N., FredricksonT.N., Morse H.C. III, Hartley J.W., "Characteristics and contributions of defective, ecotropic and mink cell focus-inducing viruses in a retrovirus induced immunodeficiency syndrome of mice.", J..Virol. 1991; 65: 4232-41.). A second pair or oligonucleotide primers was used for amplification of 203-bp of the mouse glucose-6-phosphate dehydrogenase (G6PD) gene. This amplification served as an internal control (endogenous standard) for evaluation of the relative BM5d proviral DNA. The nucleotide primers for the amplification were as follows: 5' primer, 5'-[…]-3' (sense) and 3' primer, 5'-[…]-3' (antisense) (Kurdi-Haidar B., Mason P.J., Berrebi A., et al., "Origin and spread of the glucose-6-phosphate dehydrogenase variant (G6PD-Mediterranean) in the Middle East.", Am. J. Hum. Genet. 1990; 47:1013-19.).
Probe D30, which was derived from the 137-bp Smal-Xhol p12 gag fragment of the defective virus genome (DU5H), was kindly provided by P. Jolicoeur (Montreal, Canada) (Aziz D.C., Hanna Z., Jolicoeur P., "Severe immunodeficiency disease induced by a defective murine leukemia virus.", Nature 1989; 338: 505-08).
Total cellular DNA was isolated from the spleens, lymph nodes and bone marrow of uninfected, infected and infected/treated mice by the sodium iodide isopropanol method.
PCR amplifications were performed in a 25 µl final volume using the Perkin Elmer GeneAMP kit (1 mM MgCl2, 2.5 U AmpliTag) with 0.3 µg total cellular DNA and 20 pmol of each primer.
PCR reaction were carried out for 37 cycles at 95°C for 30 sec, 58°C for 30 sec and 72°C for 30 sec with a final extension at 72°C for 10 min.
Products were analyzed by electrophoresis on agarose gel, blotted and hybridized with either the ^32P-labeled D30 or G6PD probe.
The intensity of radiolabeled bands was analyzed and quantified in a GS-250 Molecular Imager™ (Bio-Rad, Hercules, CA, USA). For BM5d proviral DNA detection the relative integration was determined by dividing the intensity of the BM5d bands by the intensity of G6PD bands (Fraternale A., Casabianca A., Rossi L., et al., "Inhibition of murine AIDS by combination of AZT and dideoxycytidine 5'-triphosphate.", J. Acquir. Imm. Def Syndr. and Hum. Retrovir. 1996; 12:164-73). The percentages of inhibition were referred to the infected mice.

[4] = test system: circulating B cells; assay: Flow cytometry of circulating lymphocytes; details: after Fludara suspension
Source text: Whole blood samples were stained with antimouse L3T4/CD4 fluorescein isothiocyanate (FITC) conjugated (Boehringer Mannheim Biochemica) for the detection of CD4^+ lymphocytes, antimouse Ly-2R phycoerythrin (PE) conjugated (Boehringer Mannheim Biochemica) for the detection of CD8a lymphocytes, antimouse Thy-1.2 FITC conjugated (Boehringer Mannheim Biochemica) for the detection of T cells, and antimouse Ly 5 (B220)-PE Monoclonal antibody (Cederlane, Ontario, Canada) for the detection of committed B cell precursors. Samples were analyzed by FACS (Becton Dickinson).

[5] = group a: 3.0 mg i.p. once a day for 5 consecutive days, 4 weeks
[6] = group b: 3.0 mg i.p. twice a day for 5 consecutive days, 4 weeks
[7] = group c: 10 mg in drinking water for 5 consecutive days, 4 weeks
[8] = group d: 15 mg in drinking water for 5 consecutive days, 4 weeks
[9] = treatment c: after 6 weeks of infection 3 mg F-ara-AMP i.p. twice a day, 5 consecutive days, 4 weeks, at 10 weeks after infection
[10] = treatment g: after 6 weeks of infection 3 mg F-ara-AMP i.p. twice a day 4 weeks, then interrupted, at 15 weeks after infection

Compound: Nc1nc(F)nc2c1ncn2[C@@H]1O[C@H](COP(=O)(O)O)[C@@H](O)[C@@H]1O [F-ara-AMP, Fludarabine phosphate]
- Hyperg. (% inh.) ([1]; 0.065 mg/mouse i.p. 3 days a week for 3 weeks): 12±10%
- Hyperg. (% inh.) ([1]; 0.325 mg/mouse i.p. 3 days a week for 3 weeks): 16±7%
- Hyperg. (% inh.) ([1]; 0.650 mg/mouse i.p. 3 days a week for 3 weeks): 19±4%
- toxicity in the liver (necrotic cells) [2]: some toxicity
- % of inhibition of BM5d proviral DNA, Bonemarrow [3, 5]: 0%
- % of inhibition of BM5d proviral DNA, Lymphnode [3, 5]: 19.76±11.10 %
- % of inhibition of BM5d proviral DNA, Spleen [3, 5]: 25.74±17.54%
- % of inhibition of BM5d proviral DNA, Bonemarrow [3, 6]: 22.94±7.40 %
- % of inhibition of BM5d proviral DNA, Lymphnode [3, 6]: 54.63±13.12 %
- % of inhibition of BM5d proviral DNA, Spleen [3, 6]: 39.85±16.70 %
- % of inhibition of BM5d proviral DNA, Bonemarrow [3, 7]: 28.05±8.84 %
- % of inhibition of BM5d proviral DNA, Lymphnode [3, 7]: 30.33±19.67 %
- % of inhibition of BM5d proviral DNA, Spleen [3, 7]: 15.16±11.46%
- % of inhibition of BM5d proviral DNA, Bonemarrow [3, 8]: 21.69±9.02 %
- % of inhibition of BM5d proviral DNA, Lymphnode [3, 8]: 12.16±5.48%
- % of inhibition of BM5d proviral DNA, Spleen [3, 8]: 27.40±8.47 %
- bone marrow, BM5d proviral DNA copy number (E) [3, 9]: 19,750±1,485 Proviral DNA molecules per 0.3 µg of total cellular DNA
- bone marrow, inhibition of BM5d (% vs. Infected) (F) [3, 9]: 30.32±5.24 %
- lymph node, BM5d proviral DNA copy number (C) [3, 9]: 49,500±7758 Proviral DNA molecules per 0.3 µg of total cellular DNA
- lymph node, inhibition of BM5d (% vs. Infected) (D) [3, 9]: 77.46±3.53 %
- spleen, BM5d proviral DNA copy number (A) [3, 9]: 37,900±15,717 Proviral DNA molecules per 0.3 µg of total cellular DNA
- spleen, inhibition of BM5d (% vs. Infected) (B) [3, 9]: 74.27 ± 10.67 %
- bone marrow, BM5d proviral DNA copy number (E) [3, 10]: 33,900±3,736 Proviral DNA molecules per 0.3 µg of total cellular DNA
- lymph node, BM5d proviral DNA copy number (C) [3, 10]: 180,000±8,544 Proviral DNA molecules per 0.3 µg of total cellular DNA
- lymph node, inhibition of BM5d (% vs. Infected) (D) [3, 10]: 34.00±3.13 %
- spleen, BM5d proviral DNA copy number (A) [3, 10]: 135,000±47,444 Proviral DNA molecules per 0.3 µg of total cellular DNA
- spleen, inhibition of BM5d (% vs. Infected) (B) [3, 10]: 31.47±24.08%
- number of circulating B cells after suspension of administration [4]: returns to normal values
